Results taken from the NIST ThermoML archive (doi:10.1021/acs.jced.6b00985).
± gives the expanded uncertainty stated by the source.

Assays:
[1] = 293.15 K; 101.33 kPa; Liquid; Vibrating tube method
[2] = refractive index (Na D-line) (dimensionless); conditions: 293.15 K; 101.33 kPa; Liquid; Standard Abbe refractometry

mass density [1] [kg/m3] | refractive index [2] | SMILES
819.9 ± 8 | 1.4151 ± 0.0011 | CCCCCCC(C)=O [2-octanone]
745.7 ± 8 | 1.4066 ± 0.0011 | C1CCCC1 [cyclopentane]
948.7 ± 8 | 1.4531 ± 0.0011 | OC1CCCC1 [cyclopentanol]
990.1 ± 8.2 | 1.4452 ± 0.0012 | CCCCOC(=O)/C=C\C(=O)OCCCC [dibutyl cis-butendioate]
988 ± 8 | 1.3809 ± 0.0011 | CCC(=O)O [propanoic acid]
